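These data come from cells grown in 96-well plates and exposed to compound for 48 hours at five concentrations. TGI: concentration producing complete growth inhibition.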
Experiments:
Experiment in all cases: DTP human tumour cell line panel, 48 h
[1] = tested on: KM12 colon
[2] = tested on: HCC-2998 colon
[3] = tested on: HCT-116 colon
[4] = tested on: UO-31 renal
[5] = tested on: BT-549 breast
[6] = tested on: SK-MEL-5 melanoma
[7] = tested on: SN12C renal
[8] = tested on: OVCAR-4 ovarian
[9] = tested on: LOX IMVI melanoma
[10] = tested on: RXF 393 renal
[11] = tested on: HOP-92 NSCLC
[12] = tested on: K-562 leukemia
[13] = tested on: SR leukemia
[14] = tested on: ACHN renal
[15] = tested on: MDA-MB-231 breast
[16] = tested on: RPMI-8226 leukemia
[17] = tested on: A498 renal
[18] = tested on: NCI-H522 lung
[19] = tested on: SF-539 CNS
[20] = tested on: HCT-15 colon
[21] = tested on: PC-3 prostate
[22] = tested on: MALME-3M melanoma
[23] = tested on: MDA-N
[24] = tested on: A549 NSCLC
[25] = tested on: EKVX NSCLC
[26] = tested on: SF-268 CNS
[27] = tested on: SNB-75 CNS
[28] = tested on: UACC-257 melanoma
[29] = tested on: UACC-62 melanoma
[30] = tested on: T-47D breast
[31] = tested on: M14 melanoma
[32] = tested on: NCI-H226 lung
[33] = tested on: SK-OV-3 ovarian
[34] = tested on: U251 CNS
[35] = tested on: 786-0 renal
[36] = tested on: DU-145 prostate
[37] = tested on: SK-MEL-28 melanoma
[38] = tested on: COLO 205 colon
[39] = tested on: OVCAR-8 ovarian
[40] = tested on: OVCAR-5 ovarian
[41] = tested on: NCI/ADR-RES ovarian
[42] = tested on: SK-MEL-2 melanoma
[43] = tested on: IGROV1 ovarian
[44] = tested on: CAKI-1 renal
[45] = tested on: MOLT-4 leukemia
[46] = tested on: SF-295 CNS
[47] = tested on: SNB-19 CNS
[48] = tested on: HOP-62 NSCLC
[49] = tested on: CCRF-CEM leukemia
[50] = tested on: SW-620 colon
[51] = tested on: OVCAR-3 ovarian
[52] = tested on: MCF7 breast
[53] = tested on: NCI-H460 lung
[54] = tested on: HL-60(TB) leukemia
[55] = tested on: NCI-H23 lung
[56] = tested on: TK-10 renal
[57] = tested on: HT29 colon
[58] = tested on: MDA-MB-435

SMILES: CCCCCC(/C=C/C1CCC(=O)C1)OCOCCOC (centres undefined)
- TGI [1]: > 100 µM
- TGI [2]: > 100 µM
- TGI [3]: > 73.6 µM
- TGI [4]: 58.5 µM
- TGI [5]: > 71 µM
- TGI [6]: > 100 µM
- TGI [7]: > 100 µM
- TGI [8]: > 100 µM
- TGI [9]: > 71 µM
- TGI [10]: > 100 µM
- TGI [11]: 84.5 µM
- TGI [12]: > 86.7 µM
- TGI [13]: > 81.8 µM
- TGI [14]: 58.6 µM
- TGI [15]: > 100 µM
- TGI [16]: 60.3 µM
- TGI [17]: 99.3 µM
- TGI [18]: 36 µM
- TGI [19]: 46.3 µM
- TGI [20]: > 100 µM
- TGI [21]: > 100 µM
- TGI [22]: > 100 µM
- TGI [23]: > 100 µM
- TGI [24]: > 100 µM
- TGI [25]: > 100 µM
- TGI [26]: > 71.7 µM
- TGI [27]: 57.8 µM
- TGI [28]: > 66.7 µM
- TGI [29]: > 100 µM
- TGI [30]: > 100 µM
- TGI [31]: > 100 µM
- TGI [32]: > 100 µM
- TGI [33]: > 100 µM
- TGI [34]: > 100 µM
- TGI [35]: 42.5 µM
- TGI [36]: > 100 µM
- TGI [37]: > 100 µM
- TGI [38]: > 100 µM
- TGI [39]: > 95.4 µM
- TGI [40]: > 100 µM
- TGI [41]: 99.2 µM
- TGI [42]: > 100 µM
- TGI [43]: > 100 µM
- TGI [44]: > 76.9 µM
- TGI [45]: 44.5 µM
- TGI [46]: > 100 µM
- TGI [47]: > 100 µM
- TGI [48]: > 100 µM
- TGI [49]: > 92.2 µM
- TGI [50]: > 81.8 µM
- TGI [51]: > 100 µM
- TGI [52]: > 100 µM
- TGI [53]: > 100 µM
- TGI [54]: > 100 µM
- TGI [55]: > 100 µM
- TGI [56]: > 100 µM
- TGI [57]: 67.5 µM
- TGI [58]: > 100 µM

SMILES: N#Cc1c(-c2ccc(Cl)cc2)cc(-c2ccc(Nc3ccnc4cc(C(F)(F)F)ccc34)cc2)nc1N
- TGI [1]: > 100 µM
- TGI [2]: > 100 µM
- TGI [3]: 22.4 µM
- TGI [4]: 34.3 µM
- TGI [5]: > 100 µM
- TGI [6]: > 100 µM
- TGI [7]: 59 µM
- TGI [8]: 42 µM
- TGI [9]: > 100 µM
- TGI [10]: 64.5 µM
- TGI [12]: 46.9 µM
- TGI [13]: 16.4 µM
- TGI [14]: 36.8 µM
- TGI [15]: 71.2 µM
- TGI [16]: > 100 µM
- TGI [17]: 33.8 µM
- TGI [18]: 75.9 µM
- TGI [19]: 33.2 µM
- TGI [20]: 38.4 µM
- TGI [21]: > 100 µM
- TGI [22]: > 100 µM
- TGI [23]: > 100 µM
- TGI [24]: > 100 µM
- TGI [25]: > 100 µM
- TGI [26]: > 100 µM
- TGI [27]: 46.2 µM
- TGI [28]: > 100 µM
- TGI [29]: 37.8 µM
- TGI [30]: 43.2 µM
- TGI [31]: 49.6 µM
- TGI [32]: 51.1 µM
- TGI [33]: > 100 µM
- TGI [34]: 38 µM
- TGI [35]: 38.4 µM
- TGI [36]: > 100 µM
- TGI [37]: 48.2 µM
- TGI [38]: > 100 µM
- TGI [39]: > 100 µM
- TGI [40]: 88.2 µM
- TGI [41]: > 100 µM
- TGI [42]: 62.4 µM
- TGI [43]: > 100 µM
- TGI [44]: > 100 µM
- TGI [45]: 37.5 µM
- TGI [46]: 38.8 µM
- TGI [47]: 30.6 µM
- TGI [48]: 42.9 µM
- TGI [49]: 56.5 µM
- TGI [50]: > 100 µM
- TGI [52]: > 100 µM
- TGI [53]: > 100 µM
- TGI [55]: > 100 µM
- TGI [56]: 81.4 µM
- TGI [57]: 31.5 µM
- TGI [58]: 42.7 µM

SMILES: CC1=C(C)C(=O)C2=C(OCCO2)C1=O
- TGI [1]: 34.2 µM
- TGI [2]: 35 µM
- TGI [3]: 13.5 µM
- TGI [4]: 24 µM
- TGI [5]: 37.7 µM
- TGI [6]: 30.1 µM
- TGI [7]: 34.8 µM
- TGI [9]: 32.9 µM
- TGI [11]: 6.96 µM
- TGI [13]: 20.3 µM
- TGI [14]: 55.1 µM
- TGI [15]: 11.2 µM
- TGI [16]: 7.08 µM
- TGI [17]: 38.7 µM
- TGI [19]: 35 µM
- TGI [20]: 35.1 µM
- TGI [21]: 52.9 µM
- TGI [22]: 29.7 µM
- TGI [23]: 26.7 µM
- TGI [24]: 43.1 µM
- TGI [25]: 28.9 µM
- TGI [26]: 69.7 µM
- TGI [28]: 28.4 µM
- TGI [30]: 5.55 µM
- TGI [31]: 35.3 µM
- TGI [32]: 45 µM
- TGI [33]: 34.6 µM
- TGI [34]: 31.5 µM
- TGI [35]: 44.6 µM
- TGI [36]: 34 µM
- TGI [37]: 30.2 µM
- TGI [38]: 33.1 µM
- TGI [39]: 9.34 µM
- TGI [40]: 36.4 µM
- TGI [41]: 21.1 µM
- TGI [43]: 5.66 µM
- TGI [44]: 32.7 µM
- TGI [45]: 7.2 µM
- TGI [46]: 33 µM
- TGI [47]: 32.7 µM
- TGI [48]: 33.1 µM
- TGI [49]: 8.84 µM
- TGI [50]: 45.3 µM
- TGI [51]: 32.3 µM
- TGI [52]: 63.5 µM
- TGI [53]: 40.2 µM
- TGI [54]: 15 µM
- TGI [55]: 48 µM
- TGI [56]: 32.6 µM
- TGI [57]: 44.3 µM
- TGI [58]: 7.76 µM

Reference: PubChem BioAssay (NCI)
